SMILES strings stand for the structures.

For data set [1] the following is noted: rat, in vivo, po, 5 mg/kg.
Description: (§1) In this experiment, male Sprague-Dawley rats (200-250 grams) implanted with jugular vein cannulas (JVC) were obtained from Charles River Laboratories. Each compound was administered to two rats or by oral gavage. The oral dose was administered as a solution in 0.5% methycellulose with a dose volume of 10 mL/kg. The amount of each compound administered was 5 mg/kg body weight. Blood samples (0.25 mL) were collected at multiple time points from 0-24 hours and placed into tubes containing lithium heparin (Becton Dickinson, Microtainer®). The blood samples were then centrifuged at 12000 rpm for 10 minutes). Plasma aliquots were taken for determination of compound plasma concentrations (pharmacokinetic analysis). The plasma samples were frozen at −70° C. until analysis.
(§2) The rat plasma samples were analyzed for compound concentrations by LC/MS/MS (Applied Biosystems API 4000 mass spectrometer). In brief, compound standard curves were prepared in control rat plasma with a dynamic range of 1.0-2000 ng/mL. Aliquots (0.02 mL) of both standards and samples Were placed into Marsh™ tubes in a 96-well block. Proteins were precipitated by addition of 0.1 mL acetonitrile containing 0.1 μg/mL of internal standard. The 96-well blocks were vortexed and then centrifuged at 3000 rpm for 5 minutes. The resulting supernatant was removed and placed into a new 96-well block and taken to dryness at 50° C. under a nitrogen stream. Residues were reconstituted in mobile phase (60% 5 mM ammonium acetate and 40% acetonitrile). Aliquots (0.01 mL) were then injected onto the LC/MS/MS for analysis.
Data set [2] is described as follows: Comparative Rat Pharmacokinetics Experiments (plasma concentrations over time after oral gavage). The settings on record: male, Sprague-Dawley, 5 mg/kg.
Description: as §1, §2
A further data set has as its target T1, DPP-IV (Homo sapiens, UniProt P27487).
T1 construct: purchased MP Biomedicals, Livermore, Calif
In words: In vitro Assay for DPP-IV Inhibition. The format is biochemical. As to conditions: read-out: IC50 against DPP-IV. As for the experimental part:
150 μL of an enzyme-substrate solution is pipetted into microtiter wells of a polystyrene 96-well plate, and maintained at 4° C. The enzyme-substrate solution comprises 50 μM Gly-Pro-4-methoxy-β-naphthylamide hydrochloride in 50 mM Tris assay buffer pH 7.3 containing 0.1M sodium chloride, 0.1% (v/v) Triton and 50 μU/mL DPP-IV (MP Biomedicals, Livermore, Calif.; DPP-IV 5 mU/mL stock). 5 μL per well of the compound of formula (I) is added, bringing the final concentrations of the formula (I) compound to between 3 μM and 10 nM per well.
Controls. Enzyme is omitted from four (4) wells, as a reagent blank. 5 μL of 3 mM Diprotin A (Bachem Bioscience, Inc.; King of Prussia, Pa.) is added to four wells as a positive quality control, providing a final Diprotin A concentration of 100 μM. To measure total enzyme activity (i.e., a negative control), without the influence of any compounds of formula (I), 5 μL of distilled water is added to four wells.
The entire assay is incubated overnight (between 14 and 18 hours) at 37° C. […]

T1 sequence (P27487 whole entry, species assumed): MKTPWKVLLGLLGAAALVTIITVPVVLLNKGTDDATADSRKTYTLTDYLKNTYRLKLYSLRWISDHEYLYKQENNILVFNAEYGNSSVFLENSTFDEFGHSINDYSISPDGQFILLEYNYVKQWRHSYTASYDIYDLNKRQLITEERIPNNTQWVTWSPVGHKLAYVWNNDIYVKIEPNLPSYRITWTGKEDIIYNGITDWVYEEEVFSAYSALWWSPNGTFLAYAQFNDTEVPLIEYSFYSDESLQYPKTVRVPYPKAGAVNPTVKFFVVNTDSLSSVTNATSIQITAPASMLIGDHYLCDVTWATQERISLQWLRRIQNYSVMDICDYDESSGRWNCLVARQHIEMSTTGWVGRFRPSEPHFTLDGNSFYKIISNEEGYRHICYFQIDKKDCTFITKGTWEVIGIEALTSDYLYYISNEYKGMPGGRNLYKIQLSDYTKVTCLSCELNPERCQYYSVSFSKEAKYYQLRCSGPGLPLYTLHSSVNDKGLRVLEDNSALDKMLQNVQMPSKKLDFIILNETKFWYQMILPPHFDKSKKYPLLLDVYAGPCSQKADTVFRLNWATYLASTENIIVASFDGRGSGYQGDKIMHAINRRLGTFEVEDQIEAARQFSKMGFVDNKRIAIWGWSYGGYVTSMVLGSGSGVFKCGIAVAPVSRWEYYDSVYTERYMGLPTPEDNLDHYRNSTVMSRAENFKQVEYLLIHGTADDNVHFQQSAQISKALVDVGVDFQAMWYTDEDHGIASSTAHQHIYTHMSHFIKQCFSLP

In the case of `O=C([C@@H]1C[C@H](N2CCN(c3ncccn3)CC2)CN1)N1CCC(F)(F)C1` [CPD 113, (3,3-Difluoropyrrolidin-1-yl)-((2S,4S)-4-(4-(pyrimidin-2-yl)piperazin-1-yl)pyrrolidin-2-yl)-methanone], the “plasma concentrations achieved and maintained, compared with the comparator compound” value in data set [1] is “significantly higher plasma concentrations”. For the same molecule, in data set [2], the concentration at 0.25 h amounted to 1410 ng/mL, the concentration at 0.5 h was determined as 1320 ng/mL, the concentration at 0.75 h turned out to be 979 ng/mL and the concentration at 1 h turned out to be 768 ng/mL. Further, in data set [2], the concentration at 2 h turned out to be 289 ng/mL, the concentration at 4 h is 97.8 ng/mL, the concentration at 6 h amounted to 49.3 ng/mL and the concentration at 8 h was 32.8 ng/mL.

What is called IC50 is the concentration at which inhibition is half-maximal. For `N#Cc1nccnc1N1CCN([C@@H]2CN[C@H](C(=O)N3C[C@@H](F)[C@@H](F)C3)C2)CC1` (relative stereo) [Example 10, ((2S,4S)-4-(4-(3-Cyanopyrazin-2-yl)piperazin-1-yl)pyrrolidin-2-yl)-((3R*,4S*)-3,4-difluoropyrrolidin-1-yl)-methanone], the IC50 on DPP-IV was determined as 3.5 nM.

The values are drawn from patent US7291618B2, “Therapeutic compounds” (Pfizer Inc, priority 2004, dated 2007).
